For this test, the target named is Vasopressin V2 receptor (Sus scrofa, UniProt P32307). Description: Tested for the inhibition to V2 subtype receptor using [3H]- (VS2) as radioligand at 3 nM and arginine-vasopressin at 2 uM in LLCPKI cells. In kind it is cell-based.

Molecules are shown by their SMILES.

For orientation: IC50 means the concentration that inhibits the measured activity by half. Lower therefore signals greater potency.

Chain of Vasopressin V2 receptor (P32307 whole entry): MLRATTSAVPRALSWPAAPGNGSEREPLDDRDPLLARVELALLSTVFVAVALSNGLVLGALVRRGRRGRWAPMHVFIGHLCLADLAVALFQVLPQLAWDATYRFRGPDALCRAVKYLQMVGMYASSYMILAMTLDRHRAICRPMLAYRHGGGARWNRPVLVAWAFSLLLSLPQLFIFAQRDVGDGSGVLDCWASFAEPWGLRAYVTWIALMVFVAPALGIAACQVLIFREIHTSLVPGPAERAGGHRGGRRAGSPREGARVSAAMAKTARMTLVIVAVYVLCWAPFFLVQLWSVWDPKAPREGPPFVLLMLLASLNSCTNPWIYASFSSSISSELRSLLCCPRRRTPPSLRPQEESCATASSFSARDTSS

The compound `NC(=O)CC[C@@H]1NC(=O)[C@H](Cc2ccccc2)NC(=O)[C@H](Cc2ccc(O)cc2)NC(=O)[C@@H](N)CSSSC[C@@H](C(=O)N2CCC[C@H]2C(=O)N[C@@H](CCCN=C(N)N)C(=O)NCC(N)=O)NC(=O)[C@H](CC(N)=O)NC1=O` displayed an IC50 of 9.5 nM. This lies in the single-digit nanomolar range.

(Values after ChEMBL document CHEMBL1129881 (Bioorg Med Chem Lett, 1997).)
